Measured values published in patent publication US20100210540A1, “USE OF THE PEPTIDE COMBINATION THYMOSIN BETA 4 AND DELTA SLEEP INDUCING PEPTIDE AS A THERAPEUTIC AGENT” (priority 2007, published 2010).
Where no end group is shown, it is not given here.

Legend:
[1] = system: HCMV strain AD169; assay: HCMV plaque formation assay in MRC-5 cells; format: cell-based; details: for inhibition of HCMV plaque formation as compared to the virus control experiment: 10 micrograms per ml, 7-10 days
Excerpt: Ganciclovir was used as positive control.

[2] = system: hepatitis B virus (HBV) ayw strain; assay: HBV experimental assay system (secreted HBV DNA, TaqMan PCR); format: cell-based; details: 10 micrograms per ml; HepG2-2.2.15 cells; six days
[3] = system: cyclic AMP generation in human peripheral blood mononuclear cells (PBMC); assay: cAMP induction assay (ELISA); format: cell-based; details: 10 micrograms per ml; 10 min at 37° C.
Excerpt: Adenosine 3′,5′-cyclic monophosphate (cyclic AMP; cAMP) is one of the most important “second messengers” involved as a modulator of physiological processes. cAMP is also involved in regulating neuronal, glandular, cardiovascular, immune and other functions and actions in a regulatory way. For being a second messenger, cAMP has the following characteristics to work effectively: 1) Amplification—when a few peptide molecules signal the cell, it needs to respond with a signal that is strong enough to get a job done without repeated high levels of stimulation. 2) Control—eventually a response must be shut down, and there are instances when its necessary to respond a little or a lot—so control is needed. 3)—Specificity—when a peptide is utilized, a given cell should respond in a specific way. Not all cells will respond to this peptide and therefore they cannot have the same effect in all the cells. Elevated levels of cAMP in human cells are associated with the suppression of cell activation.
The cAMP kit was used as an immunoassay for the quantitative determination of cyclic AMP generation in human peripheral blood mononuclear cells (PBMC). […]; 50 micrograms per ml), or test peptides—10 micrograms per ml—were added. […]. NaOH was added to neutralize the samples. Plates were centrifuged for 15 min at 2500 rpm and the supernatants removed. […]

[4] = system: Interferon-γ (IFN-γ); assay: Th1/Th2 cytokine profiling assay: IFN-γ; format: cell-based, Balb/c mice; details: 10 micrograms per ml; Ovalbumin restimulation; 72 hours
Excerpt: (§1) The Balb/c mice (originated in 1923, it is a popular strain and is used in many different research disciplines. Also classified as an inbred from the production of 20 or more successive brother-sister matings, the Balb/c mouse is albino and small in size) were immunized on Days 1, 15, and 29 with Ovalbumin (Ovalbumin is the main protein found in egg white, commonly used to stimulate an immunological reaction in test animals) in PBS (5 micrograms/injection). On day 50, spleens of the mice were harvested (3 weeks after last boost with Ovalbumin). Cells were cultured (2×10^5/well in triplicate) and incubated with culture medium or test peptides—10 micrograms per ml—for 30 min. Thereafter, additional Ovalbumin was added to the cells at 10 micrograms/ml for in vitro restimulation of the cells. 72 hours later, cell supernatants were harvested and assayed using the Becton Dickinson Mouse Th1fTh2 Cytokine CBA Kit. This kit can be used to measure Interleukin-2 (IL-2), Interleukin-4 (IL-4), Interleukin-5 (IL-5), Interferon-γ (IFN-γ), and Tumor Necrosis Factor-α (TNF-α) protein levels in a single sample. The kit performance has been optimized for analysis of physiologically relevant concentrations (pg/ml levels) of specific cytokine proteins in tissue culture supernatants and serum samples.

[5] = system: HUVEC; assay: Endothelial tube formation assay; format: cell-based, human; details: 10 micrograms per ml, 20 hours
Excerpt: Positive control was vehicle only.

[6] = system: RAW 264.7 cells; assay: Phagocytosis assay (Fluorescein-labeled Escherichia coli, flow cytometry); format: cell-based, Mouse; details: 10 micrograms per ml
Method: RAW 264.7 (Mouse leukaemic monocyte macrophage cell line) cells were obtained from ATCC and grown in RPMI 1640 medium containing 10% FBS. Cells were incubated in 12×75 mm tubes at 37° C. with test peptides—10 micrograms per ml—for 30 min prior to adding Fluorescein-labeled Escherichia coli bacteria as the agent to be ingested. After the cells were incubated for additional 60 min at 37° C. and allowed to ingest the Fluorescein-labeled Escherichia coli bacteria, cells were fixed with 1% paraformaldehyde. The samples were then analyzed by flow cytometry to determine the amount of phagocytosis as a function of brightness (the greater the phagocytic activity, the more fluorescence in the macrophage population). Data are reported as % positive and the mean fluorescence intensity (MFI) of positively stained cells.

[7] = Th1/Th2 cytokine profiling assay: IL-2; format: cell-based, Balb/c mice; details: 10 micrograms per ml; Ovalbumin restimulation; 72 hours
Excerpt: as §1

[8] = system: Interleukin-5 (IL-5); assay: Th1/Th2 cytokine profiling assay: IL-5; format: cell-based, Balb/c mice; details: 10 micrograms per ml; Ovalbumin restimulation; 72 hours
Excerpt: as §1

[9] = system: Interleukin-4 (IL-4); assay: Th1/Th2 cytokine profiling assay: IL-4; format: cell-based, Balb/c mice; details: 10 micrograms per ml; Ovalbumin restimulation; 72 hours
Excerpt: as §1

[10] = system: Tumor Necrosis Factor-α (TNF-α); assay: Th1/Th2 cytokine profiling assay: TNF-α; format: cell-based, Balb/c mice; details: 10 micrograms per ml; Ovalbumin restimulation; 72 hours
Excerpt: as §1

[11] = system: HIV-1III8; assay: HIV-1 antiviral assay in CEM-SS cells (MTS readout)
[12] = system: Primary Human endothelial cells (HUVEC); assay: Endothelial cell migration assay; format: cell-based; details: 10 micrograms per ml, 22 hours
Method: Thereafter, designated concentration of testing peptides—10 micrograms per ml—was added in duplicate wells.

## Nc1nc(O)c2ncn(COC(CO)CO)c2n1 [Ganciclovir, reference compound]
[1]; positive control
  antiviral activity of positive control compound: expected levels of antiviral activity

## Trp-Ala-Gly-Gly-Asp-Ala-Ser-Gly-Glu-OH (WAGGDASGE-OH) [Peptide 2]
[1]
  inhibition of HCMV plaque formation as compared to the virus control experiment: 4.4%
[2]
  inhibition of HBV replication on tested liver cells: no effect
[3]
  cAMP formation in PBMC (induced by): no effects
[4]
  production of IFN-γ in murine spleen cells (decreased by): 40.8%
[5]
  inhibition of the tube formation of human endothelial cells: 3%
[6]
  inhibitory effects on the phagocytic activity of murine macrophages: no inhibitory effects
[7]
  production of IL-2 in murine spleen cells (induced by): 38.1%
[8]
  production of IL-5 in murine spleen cells (change): did not significantly change
[9]
  production of IL-4 in murine spleen cells (induced by): 70.6%
[10]
  production of TNF-alpha in murine spleen cells (change): did not significantly change

## CC(C)(C)NC(=O)[C@@H]1CN(Cc2cccnc2)CCN1C[C@@H](O)C[C@@H](Cc1ccccc1)C(=O)N[C@H]1c2ccccc2C[C@H]1O [indinavir]
[11]
  antiviral activity of positive control compounds: expected levels of antiviral activity

## Ac-Ser-Asp-Lys-Pro-Asp-Met-Ala-Glu-Ile-Glu-Lys-Phe-Asp-Lys-Ser-Lys-Leu-Lys-Lys-Thr-Glu-Thr-Gln-Glu-Lys-Asn-Pro-Leu-Pro-Ser-Lys-Glu-Thr-Ile-Glu-Gln-Glu-Lys-Gln-Ala-Gly-Glu-Ser-OH (SDKPDMAEIEKFDKSKLKKTETQEKNPLPSKETIEQEKQAGES; printed: Ser-Asp-Lys-Pro-Asp-Met-Ala-Glu-Ile-Glu-Lys-Phe-Asp-Lys-Ser-Lys-Leu-Lys-Lys-Thr-Glu-Thr-Gln-Glu-Lys-Asn-Pro-Leu-Pro-Ser-Lys-Glu-Thr-Ile-Glu-Gln-Glu-Lys-Gln-Ala-Gly-Glu-Ser-) [Peptide 1]
[1]
  inhibition of HCMV plaque formation as compared to the virus control experiment: 1.0%
[12]
  inhibition of the migration of human endothelial cells: 3%
[2]
  inhibition of HBV replication on tested liver cells: no effect
[3]
  cAMP formation in PBMC (induced by): 15.8%
[4]
  production of IFN-γ in murine spleen cells (decreased by): 52.7%
[5]
  inhibition of the tube formation of human endothelial cells: 23%
[6]; 30 min preincubation, 60 min ingestion
  phagocytosis induced, as compared to the control experiment: 45.7%
[7]
  production of IL-2 in murine spleen cells (induced by): did not significantly change
[8]
  production of IL-5 in murine spleen cells (change): did not significantly change
[9]
  production of IL-4 in murine spleen cells (induced by): 31.6%
[10]
  production of TNF-alpha in murine spleen cells (change): did not significantly change

## Cc1cn([C@H]2C[C@H](N=[N+]=[N-])[C@@H](CO)O2)c(=O)[nH]c1=O [AZT]
[11]
  antiviral activity of positive control compounds: expected levels of antiviral activity
